Results on twelve compounds are retold here after patent US20240124408A1 (Sanofi, priority 2020, published 2024).

The target of assay [1] is T1, human TRPM8 (Homo sapiens, UniProt Q7Z2W7).
T1 construct: expressed in transfected cells; host or cells: CHO (p658 mammalian expression vector)
In words: In vitro human TRPM8 fluorescence calcium flux assay (recombinant CHO cells, Fluo4-AM, FDSS6000). The class given is cell-based. Conditions: recombinant CHO cells expressing human TRPM8; menthol-related EC50, normalized to 100 μM menthol. Here is the method:
(§1) In Vitro Pig and Human TRPM8 Fluorescence Calcium Flux Assays
(§2) For functional expression of TRPM8, the full-length cDNA encoding human (NM_024080) and pig (XM_001927892.1) TRPM8 sequences were subcloned into p658 and pcDNA5/FRT/TO mammalian expression vectors, respectively. Engineered recombinant CHO cell lines expressing human or pig TRPM8 were generated. Culture media was Ham-F12 with 10% FCS for both lines, and for the pig cell line only 400 μg/ml hygromycin B and 30 μg/mL blasticidin were added as selection antibiotics (all reagents were obtained from Invitrogen, Fisher Scientific). Cells were grown in culture flasks up to 80% confluence where they were harvested using accutase (Sigma, MO, USA) to detach the cells by enzymatic dissociation and either seeded directly into assay plates or cryopreserved for future use.
(§3) For calcium flux assays, cells were plated into clear base poly-D-lysine coated 384-well plates (BD Biosciences, NJ USA) at a density of 15,000 cells per well in appropriate culture medium and grown overnight. The following day, all medium was removed then the cells were incubated with 2 μM of Fluo4-AM Dye (Molecular Probes) prepared in complete HBSS assay buffer containing 20 mM HEPES, 0.1% BSA, and 2.5 mM probenecid at room temperature for one hour. Following incubation, plates were inserted into a FDSS6000 instrument (Hamamatsu, Photonics, Japan) instrument, where cells were challenged with compounds of the formula (at varying concentrations) and intracellular calcium was measured kinetically for 3 min after addition.
(§4) This protocol allowed the determination of an EC50 value, from the sixteen-point dose response data, for each compound of the formula tested. Maximal fluorescence intensity achieved upon addition of 100 μM menthol (stock solution prepared in ethanol from solid, Sigma-Aldrich) was exported from the FDSS and further analyzed using IDBS XLFit 5. Data were normalized to the average 100 μM menthol response (maximum control wells) included in each plate. The dose response curves from the average of wells for each data point were analyzed by using nonlinear regression of sigmoidal dose response (formula 205). Finally, the (menthol-related) EC50 values (Half maximal effective concentration) were calculated with the best-fit dose curve determined by IDBS XLFit 5 software.
In general terms: A change in cytosolic calcium serves as a functional read-out for many receptors and channels.

The target of assay [2] is T2, pig TRPM8 (Sus scrofa, UniProt F1SM15).
T2 construct: expressed in transfected cells; host or cells: CHO (pcDNA5/FRT/TO vector; hygromycin B and blasticidin selection)
In words: In vitro pig TRPM8 fluorescence calcium flux assay (recombinant CHO cells, Fluo4-AM, FDSS6000). It is filed as cell-based. The following applies: recombinant CHO cells expressing pig TRPM8; menthol-related EC50, normalized to 100 μM menthol. How it is done: as §1, §2, §3, §4

The EC50 is the concentration at which the effect is half-maximal.

T2 sequence (F1SM15 1-1104): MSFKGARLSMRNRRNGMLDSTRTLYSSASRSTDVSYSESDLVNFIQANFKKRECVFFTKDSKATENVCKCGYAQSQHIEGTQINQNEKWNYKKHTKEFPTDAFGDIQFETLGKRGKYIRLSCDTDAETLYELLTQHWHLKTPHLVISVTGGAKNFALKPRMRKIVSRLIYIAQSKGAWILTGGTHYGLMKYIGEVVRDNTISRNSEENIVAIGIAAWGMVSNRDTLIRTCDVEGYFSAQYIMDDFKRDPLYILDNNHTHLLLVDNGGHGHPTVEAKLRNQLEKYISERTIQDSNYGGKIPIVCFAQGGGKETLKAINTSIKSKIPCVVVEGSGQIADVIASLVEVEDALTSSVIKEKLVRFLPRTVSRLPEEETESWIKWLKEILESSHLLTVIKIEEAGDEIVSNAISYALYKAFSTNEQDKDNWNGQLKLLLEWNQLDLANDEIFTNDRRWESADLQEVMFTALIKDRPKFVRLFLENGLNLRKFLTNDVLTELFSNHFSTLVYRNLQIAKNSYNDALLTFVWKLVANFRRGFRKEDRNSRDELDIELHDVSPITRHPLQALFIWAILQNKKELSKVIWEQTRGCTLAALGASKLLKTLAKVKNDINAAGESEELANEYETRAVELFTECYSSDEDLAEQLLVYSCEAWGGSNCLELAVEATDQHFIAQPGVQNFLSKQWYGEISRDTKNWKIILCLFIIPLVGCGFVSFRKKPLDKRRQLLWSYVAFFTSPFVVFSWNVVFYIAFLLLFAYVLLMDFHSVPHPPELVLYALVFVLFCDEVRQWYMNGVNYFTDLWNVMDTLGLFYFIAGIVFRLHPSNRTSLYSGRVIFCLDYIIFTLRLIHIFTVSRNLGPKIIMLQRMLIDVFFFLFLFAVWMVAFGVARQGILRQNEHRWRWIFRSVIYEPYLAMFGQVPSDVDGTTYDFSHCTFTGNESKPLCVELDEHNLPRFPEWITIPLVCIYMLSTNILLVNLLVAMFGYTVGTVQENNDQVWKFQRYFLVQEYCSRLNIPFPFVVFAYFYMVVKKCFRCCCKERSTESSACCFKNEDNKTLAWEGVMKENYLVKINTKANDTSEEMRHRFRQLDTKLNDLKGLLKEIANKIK
T1 sequence (Q7Z2W7 whole entry): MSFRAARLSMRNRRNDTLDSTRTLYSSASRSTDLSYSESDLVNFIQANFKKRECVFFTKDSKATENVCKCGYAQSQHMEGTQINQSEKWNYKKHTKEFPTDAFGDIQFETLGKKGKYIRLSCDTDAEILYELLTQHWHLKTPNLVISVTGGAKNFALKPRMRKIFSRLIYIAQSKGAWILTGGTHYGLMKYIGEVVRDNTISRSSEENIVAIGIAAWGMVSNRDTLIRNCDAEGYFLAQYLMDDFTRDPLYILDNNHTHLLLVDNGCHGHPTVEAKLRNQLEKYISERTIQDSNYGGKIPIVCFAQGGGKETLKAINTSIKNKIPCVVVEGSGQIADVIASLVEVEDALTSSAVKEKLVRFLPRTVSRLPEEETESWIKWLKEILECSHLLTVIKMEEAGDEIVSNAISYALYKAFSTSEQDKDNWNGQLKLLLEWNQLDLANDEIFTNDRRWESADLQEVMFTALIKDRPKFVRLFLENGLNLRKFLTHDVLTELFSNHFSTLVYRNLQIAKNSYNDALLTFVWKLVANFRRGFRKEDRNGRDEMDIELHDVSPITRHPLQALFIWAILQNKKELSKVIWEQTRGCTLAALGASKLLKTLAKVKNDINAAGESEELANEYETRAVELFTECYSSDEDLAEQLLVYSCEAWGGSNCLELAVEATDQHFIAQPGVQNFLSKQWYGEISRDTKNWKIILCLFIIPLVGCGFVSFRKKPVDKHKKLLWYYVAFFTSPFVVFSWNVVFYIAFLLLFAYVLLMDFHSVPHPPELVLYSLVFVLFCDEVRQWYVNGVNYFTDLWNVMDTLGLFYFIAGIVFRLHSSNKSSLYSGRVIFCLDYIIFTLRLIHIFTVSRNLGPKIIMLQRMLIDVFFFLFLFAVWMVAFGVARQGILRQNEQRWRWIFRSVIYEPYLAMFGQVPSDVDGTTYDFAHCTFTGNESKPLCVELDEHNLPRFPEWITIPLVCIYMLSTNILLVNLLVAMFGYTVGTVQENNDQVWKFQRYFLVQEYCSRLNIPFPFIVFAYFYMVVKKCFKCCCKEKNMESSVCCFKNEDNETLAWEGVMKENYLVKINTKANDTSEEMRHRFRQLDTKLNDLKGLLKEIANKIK

As to `CC(C)[C@@H]1CC[C@@H](C)C[C@@]1(O)C(=O)NCCc1nc2ccccc2[nH]1` [Example 8, (1S,2S,5R)—N-(2-(1H-benzo[d]imidazol-2-yl)ethyl)-1-hydroxy-2-isopropyl-5-methylcyclohexane-1-carboxamide 2-hydroxypropane-1,2,3-tricarboxylate], the concentration for a half-maximal effect (EC50) in assay [1] stood at 1.51 µM; in assay [2] it was 0.713 µM.
As to `Cc1cccc([C@H](O)CNC(=O)[C@]2(O)C[C@H](C)CC[C@H]2C(C)C)c1` [Example 46, (1S,2S,5R)-1-hydroxy-N-((2S)-hydroxy-2-(m-tolyl)ethyl)-2-isopropyl-5-methylcyclohexane-1-carboxamide], the EC50 in assay [1] was determined as 0.0119 µM; in assay [2] it was 0.0046 µM.
For `CC(C)[C@@H]1CC[C@@H](C)C[C@@]1(O)C(=O)NCC(O)(c1ccccc1)C(F)(F)F` (single isomer, unassigned) [Example 83], in that order: 0.168 µM and 0.136 µM.
For `CC(C)[C@@H]1CC[C@@H](C)C[C@@]1(O)C(=O)NCC(=O)c1cccc(O)c1O` [Example 104, (1S,2S,5R)—N-(2-(2,3-dihydroxyphenyl)-2-oxoethyl)-1-hydroxy-2-isopropyl-5-methylcyclohexane-1-carboxamide], in that order: 0.0011 µM and 0.0006 µM.
For `COc1cc(CCNC(=O)[C@]2(O)C[C@H](C)CC[C@H]2C(C)C)cc(OC)c1` [Example 123, (1S,2S,5R)-N-[2-(3,5-dimethoxyphenyl)ethyl]-1-hydroxy-2-isopropyl-5-methyl-cyclohexanecarboxamide], in that order: 0.334 µM and 0.229 µM.
Turning to `CC(C)[C@@H]1CC[C@@H](C)C[C@@]1(O)C(=O)NCC(NC(=O)[C@H](C)N)c1ccccc1` (single isomer, unassigned) [Example 181], the EC50 in assay [1] worked out at 0.0225 µM; in assay [2] it was 0.0614 µM.
For `CC(C)[C@@H]1CC[C@@H](C)C[C@@]1(O)C(=O)NCC1(O)CCc2ccccc21` (single isomer, unassigned) [Example 175], in that order: 0.043 µM and 0.535 µM.
`CC(C)[C@@H]1CC[C@@H](C)C[C@@]1(O)C(=O)NCC1(O)CCCc2ccccc21` (mixture of isomers) [Example 177, (1S,2S,5R)-1-hydroxy-N-(((1RS)-hydroxy-1,2,3,4-tetrahydronaphthalen-1-yl)methyl)-2-isopropyl-5-methylcyclohexane-1-carboxamide]: the concentration for a half-maximal effect (EC50) in assay [1] came to 0.0036 µM; in assay [2], 0.0034 µM.
For `CC(C)[C@@H]1CC[C@@H](C)C[C@@]1(O)C(=O)N[C@@H]1CCc2ccc(O)cc2C1` [Example 171, (1S,2S,5R)-1-hydroxy-N-[(2R)-7-hydroxytetralin-2-yl]-2-isopropyl-5-methyl-cyclohexanecarboxamide], in that order: 0.0032 µM and 0.0061 µM.
As to `COc1ccc2c(c1)CCC2CNC(=O)[C@]1(O)C[C@H](C)CC[C@H]1C(C)C` (stereo partly drawn) [Example 152, (1S,2S,5R)-1-hydroxy-2-isopropyl-N-[(5-methoxyindan-1-yl)methyl]-5-methyl-cyclohexanecarboxamide], the figures for the EC50 in assay [1] and in assay [2] were 0.31 µM and 0.047 µM, respectively.
For `CC(C)[C@@H]1CC[C@@H](C)C[C@@]1(O)C(=O)NCCCc1ccc(O)cc1` [Example 167, (1S,2S,5R)-1-hydroxy-N-[3-(4-hydroxyphenyl)propyl]-2-isopropyl-5-methyl-cyclohexanecarboxamide], in that order: 0.0584 µM and 0.0918 µM.
For `CC(C)[C@@H]1CC[C@@H](C)C[C@@]1(O)C(=O)N[C@@H](C)CCc1ccc(O)cc1` [Example 168, (1S,2S,5R)-1-hydroxy-N-[(1S)-3-(4-hydroxyphenyl)-1-methyl-propyl]-2-isopropyl-5-methyl-cyclohexanecarboxamide], in that order: 0.334 µM and 0.343 µM.
